Consider one molecule from EPA's ToxValDB 9.5 (doi:10.2903/j.efsa.2014.3540).

One data set has as its system Apis mellifera. To be noted: acute, duration: 48 hours, mortality.
A further data set deals with Colinus virginianus. As to conditions: for LD50: acute, oral, mortality.
In another data set the test system is Daphnia magna. As to conditions: chronic/long-term; duration: 21 days; reproduction.
A further data set concerns Landoltia sp. To be noted: acute; duration: 7 days; growth.
The subject of another data set is Oncorhynchus mykiss. To be noted: chronic/long-term; duration: 96 days; mortality.
Another data set has as its system Oryctolagus sp. To be noted: developmental; development.
The test system of the next data set is Rattus norvegicus. As to conditions: for NOAEL: chronic.
Another data set concerns Tagia sp. To be noted: acute; duration: 14 days; mortality.

A word on the NOAEL: it is the highest tested level that showed no adverse finding. Turning to `Cc1c(C(=O)c2c[nH]n(C)c2=O)ccc(S(C)(=O)=O)c1C1=NOCC1` [Topramezone], the LD50 in the data set with Apis mellifera (dermal) was > 100 µg/piece; in the data set on Apis mellifera (oral, unspecified), > 72 µg/piece; in the data set on Colinus virginianus (diet) it was > 1080 mg/kg-day; with Colinus virginianus, > 2000 mg/kg-day; in the data set on Rattus norvegicus (acute, oral, mortality), > 2000 mg/kg-day. This molecule showed an NOEL in the data set with Colinus virginianus (reproduction developmental, reproduction) of 19.4 mg/kg-day. Further, the NOEC was determined as 50 mg/L in the data set on Daphnia magna and 0.001 mg/L in the data set with Landoltia sp.. This molecule had an NOAEC in the data set on Oncorhynchus mykiss of 3.2 mg/L. Moreover, the NOAEL with Oryctolagus sp. was 0.5 mg/kg-day; in the data set with Rattus norvegicus (F), 0.4 mg/kg-day; with Rattus norvegicus (M) it was 0.3 mg/kg-day; with Rattus norvegicus (duration: 2 years, F, histopathology: neoplastic), 0.4 mg/kg-day. Further, in the data set with Tagia sp., the LC50 is > 1000 mg/kg.
